From patent US20100190813A1, “SPIRO [PIPERIDINE-4- 4' -THIENO [3,2-C] PYRAN] DERIVATIVES AND RELATED COMPOUNDS AS INHIBITORS OF THE SIGMA RECEPTOR FOR THE TREATMENT OF PSYCHOSIS” (priority 2007, published 2010)
Where two headings read alike, the source gives them in different places.

How the values were obtained:
[1] = molecular target: T1, σ2-receptor (Rattus norvegicus, UniProt Q5U3Y7); assay: Sigma 2 receptor binding (Version B), [3H]-Ditolylguanidin displacement; details: for Ki: [3H]-Ditolylguanidin 3 nM, σ1 sites masked with (+)-Pentazocin 500 nM; for inhibition at 1 µM: read-out: Binding σ2 *[Inhibition at 1 μM]
T1 construct: the σ2-Receptorpreparation was prepared from rat liver; from tissue; host or cells: rat liver membrane homogenate
T1 sequence (Q5U3Y7 1-176): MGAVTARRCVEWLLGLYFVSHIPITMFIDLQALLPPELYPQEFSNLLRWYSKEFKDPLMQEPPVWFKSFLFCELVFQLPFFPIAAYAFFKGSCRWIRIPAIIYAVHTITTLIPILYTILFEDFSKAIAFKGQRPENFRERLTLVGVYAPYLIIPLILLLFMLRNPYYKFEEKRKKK
Description: In brief the σ2-Receptorpreparation was prepared from rat liver. The livers were homogenized in 5 to 6 times of volume sucrose solution (0.32M) and homogenized. The homogenate was centrifuged at 2900 rpm, 4° C., 10 min). the supernatant was centrifuged again (31000×g, 4° C., 20 min). The pellet was resuspended in TRIS-buffer, incubated for 30 min at room temperature while stirring and centrifuged f (31000×g, 4° C., 20 min). The pellet was resuspended in cold TRIS-buffer pH 8 and homogenized. Then the protein content was measured (approx. 2 mg/mL) and the homogenate frozen at −80° C. for later use.
The radioligand used was [^3H]-Ditolylguanidin in TRIS-buffer pH 8. The σ1-receptor binding sites were masked through (+)-Pentazocin-solution in TRIS-Puffer pH 8.
In a volume of 200 μL 50 μL compound solution of varying concentration, 50 μL (+)-Pentazocin-solution ([…]; resulting in 500 nM in the assay), 50 μL radioligand-solution (12 nM; resulting in 3 nM in the assay) and finally 50 μL of receptor preparation (approx. 2 mg/mL) were given into a well of a microplate equipped with a filter. The plate was closed and stirred for 2 h at room temperature and 500 rpm. Following that the solvents were removed by a harvester through the filter. After rinsing with H2O the filter was measured in a scintillation counter ([^3H]-protocol).

[2] = molecular target: T2, σ1-receptor (Cavia porcellus, UniProt Q60492); assay: Sigma 1 receptor binding (Version B), [3H]-(+)-Pentazocin displacement; parameters: species or system guinea pig
T2 construct: the σ1-receptor preparation was prepared from guinea pig brain; from tissue; host or cells: guinea pig brain membrane homogenate
T2 sequence (Q60492 whole entry): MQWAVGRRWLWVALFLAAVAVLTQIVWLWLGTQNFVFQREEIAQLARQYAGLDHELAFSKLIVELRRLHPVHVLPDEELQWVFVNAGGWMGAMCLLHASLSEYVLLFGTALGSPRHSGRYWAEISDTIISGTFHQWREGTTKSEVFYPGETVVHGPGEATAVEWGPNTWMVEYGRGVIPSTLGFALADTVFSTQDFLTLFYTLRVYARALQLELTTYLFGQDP
Description: In brief the σ1-receptor preparation was prepared from guinea pig brain. The brains were homogenized in 5 to 6 times of volume sucrose solution (0.32M) and homogenized. The homogenate was centrifuged at 2900 rpm, 4° C., 10 min). the supernatant was centrifuged again (23500×g, 4° C., 20 min). The pellet was resuspended in Tris-buffer, incubated for 30 min at room temperature and centrifuged f (23500×g, 4° C., 20 min). The pellet was resuspended in cold TRIS-buffer and homogenized. Then the protein content was measured (approx. 1.5 mg/mL) and the homogenate frozen at −80° C. for later use.
The radioligand used was [^3H]-(+)-Pentazocin in TRIS-buffer. In a volume of 200 μL 50 μL TRIS-buffer, 50 μL compound solution of varying concentration, 50 μL radioligand-solution (8 nM; resulting in 2 nM in the assay) and finally 50 μL of receptor preparation (approx. 1.5 mg/mL) were given into a well of a microplate equipped with a filter. The plate was closed and stirred for 2.5 h at 37° C. and 500 rpm. Following that the solvents were removed by a harvester through the filter. After rinsing with H2O the filter was measured in a scintillation counter ([^3H]-protocol).

[3] = molecular target: T2, σ1-receptor; assay: Sigma-1 receptor binding (Version A), [3H]-(+)-pentazocine displacement; parameters: species or system guinea pig
[4] = Binding σ2 Ki [nM], version B, rat liver preparation
[5] = version B, rat liver preparation, compound at 1 μM
[6] = version B, rat liver preparation, read-out: Binding σ2 Ki
[7] = version A, guinea pig brain membranes, [3H]-(+)-pentazocine 3.0 nM, read-out: Binding σ1, Ki
[8] = version B, guinea pig brain preparation, [3H]-(+)-Pentazocin 2 nM, read-out: Binding σ1 Ki

Which Ki [1, 4] does the source give for `COC1Cc2sccc2C2(CCN(CC=C(C)C)CC2)O1` (stereo not drawn) [Example 7, 6′-Methoxy-1-(3-methylbut-2-enyl)-6′,7′-dihydrospiro[piperidin-4.4-thieno[3.2-c]pyran]] here?
Its Ki is 78.1 ± 74 nM.

What about the Ki [2] of the same compound?
Its Ki is 0.96 ± 0.25 nM.

With `COC1Cc2sc(C=NO)cc2C2(CCN(Cc3ccccc3)CC2)O1` (mixture of isomers) [Example 43, (E/Z)-1-Benzyl-6′-methoxy-6′,7′-dihydrospiro[piperidine-4,4′-thieno[3,2-c]pyrano]-2-carbaldehydroxim] as the compound, how does the inhibition at 1 µM [1, 5] read?
The inhibition at 1 µM was 2%.

Which inhibition at 1 µM [1, 5] does the source give for `OCCC1Cc2sccc2C2(CCN(Cc3ccccc3)CC2)O1` (stereo not drawn) [Example 27, 2-(1-Benzyl-6′,7′-dihyrospiro[piperidine-4,4′-thieno[3,2-c]pyrano]-6′-yl)ethanol] here?
Its inhibition at 1 µM is 11%.

Which results are given for `COC1Cc2sccc2C2(CCN(Cc3ccc(F)cc3)CC2)O1` (stereo not drawn) [Example 13, 1-(4-Flourbenzyl)-6′-Methoxy-6′,7′-dihydrospiro[piperidin-4,4′-thieno[3.2-c]pyran]]?
Ki [1, 6]: 425 nM; Ki [3]: 2.3 ± 0.4 nM; Ki [2]: 3.39 ± 4.54 nM

Which results are given for `c1ccc(CN2CCC3(CC2)OCCc2sccc23)cc1` [Example 19, 1-Benzyl-6′,7′-dihydrospiro[piperidin-4,4′-thieno[3,2-c]pyran]]?
Ki [1, 4]: 9.6 ± 8.7 nM; Ki [3, 7]: 2.1 ± 0.4 nM; Ki [2]: 0.31 ± 0.11 nM

Which Ki [3, 7] does the source give for `COC1Cc2sccc2C2(CCN(CC3CCCCC3)CC2)O1` (stereo not drawn) [Example 5, 1-(Cyclohexylmethyl)-6′Methoxy-6′,7′-dihydrospiro[piperidin-4,4′-thieno[3.2-c]pyran]] here?
Its Ki is 2.2 ± 0.3 nM.

And the Ki [2, 8]?
Its Ki is 0.29 ± 0.079 nM.

For `c1ccc(CN2CCC3(CC2)OCCc2sccc23)cc1` [Example 26a], which Ki ([2]; read-out: Binding σ1 Ki, version B, guinea pig brain preparation, [3H]-(+)-Pentazocin 2 nM) is on record?
Its Ki is 0.31 ± 0.11 nM.

For `COC1Cc2sc(CN(C)C)cc2C2(CCN(Cc3ccccc3)CC2)O1` (stereo not drawn) [Example 42, (1-Benzyl-6′-methoxy-6′,7′-dihydrospiro[piperidine-4,4′-thieno[3.2-c]pyrano]-2′-yl)-N,N-dimethylmethanamine], which Ki [1, 6] is on record?
Its Ki is 898 nM.

What about the Ki [2] of the same compound?
The Ki was 16.8 ± 1.1 nM.

With `COC1Cc2sccc2C2(CCN(Cc3ccccc3)CC2)O1` (stereo not drawn) [Example 3, 1-Benzyl-6′-methoxy-6′,7′-dihydrospiro[piperidin-4,4′-thieno[3.2-c]pyran]] as the compound, how does the Ki [1, 6] read?
Its Ki is 1260 nM.

What about the Ki [3] of the same compound?
Its Ki is 2.4 ± 0.3 nM.

What about the Ki [2, 8] of the same compound?
The Ki was 0.32 ± 0.16 nM.

And the melting point?
Its melting point is 78 °C.

For `O=C1Cc2sccc2C2(CCN(Cc3ccccc3)CC2)O1` [Example 28, 1-Benzylspiro[piperidine-4,4′-thieno[3.2-c]pyrano]-6′(7′H)-one], which inhibition at 1 µM [1] is on record?
The inhibition at 1 µM was 0%.

Which inhibition at 1 µM [1, 5] does the source give for `NC(=O)C1Cc2sccc2C2(CCN(Cc3ccccc3)CC2)O1` (stereo not drawn) [Example 29, 1-Benzyl-6′,7′-dihyrospiro[piperidine-4,4′-thieno[3,2-c]pyrano]-6′-carboxamide] here?
The inhibition at 1 µM was 63%.

With `COC1Cc2sccc2C2(CCN(CCc3ccccc3)CC2)O1` (stereo not drawn) [Example 4, 6′-Methoxy-1-(2-phenylethyl)-6′,7′-dihydrospiro[piperidin-4,4′-thieno[3.2-c]pyran]] as the compound, how does the Ki [1, 6] read?
Its Ki is 191 nM.

And the Ki [2]?
The Ki was 5.89 ± 5.1 nM.

What about the melting point of the same compound?
The melting point was 94 °C.

Which Ki [1, 4] does the source give for `c1cc2c(s1)CCOC21CCN(CC2CCCCC2)CC1` [Example 26, 1-(Cyclohexylmethyl)-6′,7′-dihydrospiro[piperidine-4,4′-thieno[3,2-c]pyrano]] here?
Its Ki is 3.27 ± 0.53 nM.

What about the Ki [2, 8] of the same compound?
Its Ki is 0.66 ± 0.27 nM.

What about the melting point of the same compound?
The melting point was 77 °C.

Which inhibition at 1 µM [1, 5] does the source give for `COC1Cc2sc(C#N)cc2C2(CCN(Cc3ccccc3)CC2)O1` (stereo not drawn) [Example 44, 1-Benzyl-6′-methoxy-6′,7′-dihydrospiro[piperidine-4,4′-thieno[3,2-c]pyrano]-2-carbonitrile] here?
Its inhibition at 1 µM is 16%.

With `COC1Cc2sccc2C2(CCNCC2)O1` (stereo not drawn) [Example 2, 6′-Methoxy-6′,7′-dihydrospiro[piperidin-4,4′-thieno[3,2-c]pyran] as the compound, how does the inhibition at 1 µM [1, 5] read?
The inhibition at 1 µM was 17%.

What about the Ki [2, 8] of the same compound?
Its Ki is 602 nM.

Which Ki [1, 6] does the source give for `COc1ccc(CN2CCC3(CC2)OC(OC)Cc2sccc23)cc1` (stereo not drawn) [Example 14, 6′-Methoxy-1-(4-methoxybenzyl)-6′,7′-dihydrospiro[piperidin-4,4′-thieno[3.2-c]pyran]] here?
Its Ki is 2970 nM.

What about the Ki [2] of the same compound?
Its Ki is 2.24 ± 0.99 nM.

For `CCCCCN1CCC2(CC1)OC(OC)Cc1sccc12` (stereo not drawn) [Example 9, 6′-Methoxy-1-pentyl-6′,7′-dihydrospiro[piperidin-4,4′-thieno[3.2-c]pyran]], which Ki [1, 6] is on record?
Its Ki is 460 nM.

And the Ki [3]?
Its Ki is 2.9 ± 0.5 nM.

What about the Ki [2] of the same compound?
Its Ki is 1.64 ± 0.53 nM.

For `CC(=O)CC1Cc2sccc2C2(CCN(Cc3ccccc3)CC2)O1` (stereo not drawn) [Example 23, 1-(1-Benzyl-6′,7′-dihydrospiro[piperidine-4,4′-thieno[3.2-c]pyrano]-6′-yl)acetone], which Ki [1, 6] is on record?
Its Ki is 1610 nM.

Which results are given for `COC1Cc2sc(Cl)cc2C2(CCN(Cc3ccccc3)CC2)O1` (stereo not drawn) [Example 38, 1-Benzyl-2′-chloro-6′-methoxy-6′,7′-dihydrospiro[piperidine-4,4′-thieno[3.2-c]-pyrano]]?
inhibition at 1 µM [1, 5]: 49%; melting point: 117 °C

Which inhibition at 1 µM [1, 5] does the source give for `COC(=O)c1cc2c(s1)CC(OC)OC21CCN(Cc2ccccc2)CC1` (stereo not drawn) [Example 45, Methyl-1-benzyl-6′-methoxy-6′,7′-dihydrospiro[piperidine-4,4′-thieno[3,2-c]pyrano]-2-carboxylate] here?
The inhibition at 1 µM was 45%.

With `CCOC(=O)C1Cc2sccc2C2(CCN(Cc3ccccc3)CC2)O1` (stereo not drawn) [Example 33, Ethyl-1-benzyl-6′,7′-dihvrospiro[piperidine-4,4′-thieno[3,2-c]pyrano]-6′-carboxylate] as the compound, how does the inhibition at 1 µM [1, 5] read?
Its inhibition at 1 µM is 0%.

For `N#CCC1Cc2sccc2C2(CCN(Cc3ccccc3)CC2)O1` (stereo not drawn) [Example 18, {1-Benzyl-6′,7′-dihyrospiro[piperidin-4,4′-thieno[3,2-c]pyran]-6′-yl}acetonitril], which inhibition at 1 µM [1, 5] is on record?
Its inhibition at 1 µM is 6%.

With `COC1Cc2sccc2C2(CCN(CCC(C)C)CC2)O1` (stereo not drawn) [Example 6, 6′-Methoxy-1-(3-methylbutyl)-6′,7′-dihydrospiro[piperidin-4,4′-thieno[3.2-c]pyran]] as the compound, how does the Ki [1, 6] read?
Its Ki is 285 nM.

What about the Ki [3] of the same compound?
The Ki was 1.3 ± 0.5 nM.

What about the Ki [2] of the same compound?
The Ki was 0.96 ± 0.53 nM.

For `COC1Cc2sccc2C2(CCN(Cc3cccs3)CC2)O1` (stereo not drawn) [Example 15, 6′-Methoxy-1-(thien-2-ylmethyl)-6′,7′-dihydrospiro[piperidin-4,4′-thieno[3.2-c]pyran]], which Ki [1, 6] is on record?
The Ki was 1040 nM.

What about the Ki [2, 8] of the same compound?
The Ki was 2.02 ± 0.61 nM.

Which results are given for `COC1Cc2sccc2C2(CCN(CCCCc3ccccc3)CC2)O1` (stereo not drawn) [Example 12, 3′-Methoxy-1-(4-phenylbutyl)-6′,7′-dihydrospiro[piperidin-4,4% thieno[3.2-c]pyran]]?
Ki [1, 4]: 99.2 ± 21.9 nM; Ki [2, 8]: 7.67 ± 2.15 nM

With `CCCCN1CCC2(CC1)OC(OC)Cc1sccc12` (stereo not drawn) [Example 8, 1-Butyl-6′-methoxy-6′,7′-dihydrospiro[piperidin-4,4′-thieno[3.2-c]pyran]] as the compound, how does the Ki [1, 6] read?
Its Ki is 497 ± 294 nM.

And the Ki [3]?
Its Ki is 5.5 ± 1.2 nM.

What about the Ki [2, 8] of the same compound?
The Ki was 4.3 ± 0.44 nM.

For `COC1Cc2sccc2C2(CCN(CCCc3ccccc3)CC2)O1` (stereo not drawn) [Example 11], which Ki [1, 6] is on record?
The Ki was 203 nM.

For `COC1Cc2sc(C(=O)c3ccccc3)cc2C2(CCN(Cc3ccccc3)CC2)O1` (stereo not drawn) [Example 47, 1-(1-Benzyl-6′-methoxy-6′,7′-dihydrospiro[piperidine-4,4′-thieno[3.2-c]pyrano]-2-yl)-1-phenylmethanone], which Ki [1, 6] is on record?
Its Ki is 427 ± 163 nM.

With `N#CCC1Cc2sccc2C2(CCN(Cc3ccccc3)CC2)O1` (stereo not drawn) [Example 23a] as the compound, how does the “Binding σ2 *[Inhibition at 1 μM]” value ([1]; version B, rat liver preparation, compound at 1 μM, 1 µM) read?
The value was 6%.

For `COC1Cc2sc(C(OC)OC)cc2C2(CCN(Cc3ccccc3)CC2)O1` (stereo not drawn) [Example 37], which melting point is on record?
Its melting point is 71 °C.

For `CCCCCCCCN1CCC2(CC1)OC(OC)Cc1sccc12` (stereo not drawn) [Example 10, 6′-Methoxy-1-octyl-6′,7′-dihydrospiro[piperidin-4,4-thieno[3.2-c]pyran]], which Ki [1, 6] is on record?
The Ki was 1200 nM.

And the Ki [2]?
The Ki was 4.5 ± 2 nM.
